In patent US12102639B2, “Imipridones for gliomas” (Oncoceutics, Inc., priority 2017, dated 2024):
Entries after “also recorded” stand apart in the source; their conditions may differ.

Experiments:
human cancer cells = assay: Viability of human cancer cells at 72 hours post-treatment; assay type: cell-based; conditions: relative to the potency of ONC201; viability at 72 hours post-treatment
Experimental: A number of imipridones were prepared based on the syntheses above. Viability of human cancer cells was measured at 72 hours post-treatment with each compound.

HCT116 cells = assay: Anticancer efficacy in HCT116 cells; assay type: cell-based, human; conditions: HCT116, nanomolar concentrations (FIG. 8)
[1] = tested on: human colon cancer xenograft; assay: Human colon cancer xenograft-bearing mice; assay type: in vivo; conditions: xenograft mouse models of colorectal and breast cancer (FIG. 10)
[2] = tested on: NCI60 cancer cell line panel; assay: NCI60 cancer cell line panel; assay type: cell-based; conditions: NCI60 panel (FIG. 4)
leukemia cell lines = assay: Leukemia cell lines; assay type: cell-based; conditions: 55 leukemia cell lines (FIG. 11, 12)
[3] = tested on: normal cells (MRC5 lung fibroblasts, Hs27a bone marrow cells); assay: In vitro toxicity to normal cells; assay type: cell-based
[4] = tested on: integrated stress response, Akt/ERK phosphorylation; assay: Integrated stress response and Akt/ERK phosphorylation; assay type: cell-based; conditions: earlier time points compared to ONC201 (FIG. 9)
MV411 AML cells = assay: MV411 AML xenograft model
MV411 (AML) = assay: Cell viability of MV411 AML cells
[5] = tested on: acute myeloid leukemia (AML) cell lines; assay: AML cell lines, in vitro efficacy
MOLM14 (AML) = assay: Cell viability of MOLM14 AML cells; conditions: Homo sapiens, MOLM-14, 72 h

## O=C1C2=C(CCN(Cc3ccccc3)C2)N2CCN=C2N1Cc1ccc(C(F)(F)F)cc1 [ONC212]
Human cancer cells
  Relative Potency: A (A Indicates a potency increase of >2-fold of ONC201)
HCT116 cells
  cell death: induced cell death
[1]
  anti-cancer efficacy: oral and IP anti-cancer efficacy
[2]
  anti-cancer efficacy: demonstrated anti-cancer efficacy across various tumor types
Leukemia cell lines
  anti-cancer efficacy: more responsive to ONC212 than ONC201; also recorded: nanomolar range in 55 leukemia cell lines
[3]
  in vitro toxicity to normal cells: but not normal cells (MRC5); also recorded: non-toxic to normal cells at efficacious concentrations
[4]
  integrated stress response and Akt/ERK phosphorylation: induces the integrated stress response and inhibits Akt/ERK phosphorylation at nanomolar concentrations
MV411 AML cells; 50 mg/kg, oral weekly administration (ONC201 at similar doses)
  leukemia xenograft tumor growth: significantly reduced leukemia xenograft tumor growth
MV411 AML cells; biweekly dosing with 25 mg/kg
  leukemia xenograft tumor growth: not efficacious
MV411 AML cells; weekly/biweekly dosing with 5 mg/kg
  leukemia xenograft tumor growth: not efficacious
MV411 (AML); Homo sapiens, MV4-11, 72 h
  IC50: 10 nM
MV411 (AML); MV411, 5 nM-5 μM, 24 h (FIG. 14A)
  efficacy in AML cells resistant to cytarabine: efficacious
[5]; 250 nM, MOLM14 and MV411 AML cells, viability at 96 h
  cell viability after 8 hr exposure: robust reduction in cell viability
[5]; AML cell lines, Table 4
  potency compared to ONC201: up to 400 fold
MOLM14 (AML)
  IC50: 10 nM
